Reference: patent publication US20240383852A1, “ANTI-VIRAL COMPOUNDS” (INFEX Therapeutics Limited, priority 2021, published 2024)
Counter-ions that a name gives are not always drawn.

What follows are compounds tested against T1, SARS-CoV-2 PLpro (Severe acute respiratory syndrome coronavirus 2, UniProt P0DTD1) (assay: biochemical). Conditions: not given.
T1 construct: containing 60 nM papain-like protease

`COc1ccc([C@@H](C)NC(=O)c2cc(N3[C@@H]4CC[C@H]3CN(C)C4)ccc2C)cc1OC` [Example 10, N-[(1R)-1-(3,4-Dimethoxyphenyl)ethyl]-2-methyl-5-[(1S,5R)-3-methyl-3,8-diazabicyclo[3.2.1]octan-8-yl]benzamide] gave an IC50 of less than 100 µM.

Same assay, conditions: 60 nM papain-like protease, 50 μM Z-RLRGG-AMC, pH 7.5, 37° C.; read-out: SARS-CoV-2 PLpro IC50

`C[C@@H](NC(=O)c1cccc(N2CCCCC2)c1)c1cccc2ccccc12` [Example 1, N-[(1R)-1-(1-naphthyl)ethyl]-3-(1-piperidyl)benzamide] and `CC(=O)N1CCC(c2cccc(C(=O)N[C@H](C)c3cccc4ccccc34)c2)CC1` [Example 7, 3-(1-Acetyl-4-piperidyl)-N-[(1R)-1-(1-naphthyl)ethyl]benzamide] cannot be ordered by IC50: greater than 100 µM for the first, greater than 100 µM for the second.

`C[C@@H](NC(=O)c1cc(-c2ccccc2)ccn1)c1cccc2ccccc12` [Example 3, N-[(1R)-1-(1-Naphthyl)ethyl]-4-phenyl-pyridine-2-carboxamide] and `Cc1ccc(-c2ccccc2)cc1C(=O)N[C@H](C)c1cccc2ccccc12` [Example 5, 2-Methyl-N-[(1R)-1-(1-naphthyl)ethyl]-5-phenyl-benzamide] cannot be ordered by IC50: greater than 100 µM for the first, greater than 100 µM for the second.

Going from `Cc1cnc(N2CCN(C)CC2)nc1C(=O)N[C@H](C)c1cccc2ccccc12` [Example 8, 5-Methyl-2-(4-methylpiperazin-1-yl)-N-[(1R)-1-(naphthalen-1-yl)ethyl]pyrimidine-4-carboxamide Hydrochloride Salt] to `C[C@@H](NC(=O)c1cc(N2CCN(C)CC2)ccn1)c1cccc2ccccc12` [Example 14, 4-(4-Methylpiperazin-1-yl)-N-[(1R)-1-(1-naphthyl)ethyl]pyridine-2-carboxamide], the IC50 rises from less than 100 µM to greater than 100 µM. The first is the more potent here.

`Cc1ccc(N2CCN(C(=O)OC(C)(C)C)CC2)cc1C(=O)N[C@H](C)c1cccc2ccccc12` [Example 28, tert-Butyl 4-[4-methyl-3-[(1R)-1-(1-naphthyl)ethyl]carbamoyl]phenyl]piperazine-1-carboxylate] and `Cc1ccc(N2CCN(CC(=O)O)CC2)cc1C(=O)N[C@H](C)c1cccc2ccccc12` [Example 171, 2-[4-[4-Methyl-3-[[(1R)-1-(1-naphthyl)ethyl]carbamoyl]phenyl]piperazin-1-yl]acetic Acid] cannot be ordered by IC50: less than 100 µM for the first, less than 2 µM for the second.

Going from `Cc1ccc(N2CCN(C)CC2)cc1C(=O)N(C)[C@H](C)c1cccc2ccccc12` [Example 35, N,2-Dimethyl-5-(4-methylpiperazin-1-yl)-N-[(1R)-1-(1-naphthyl)ethyl]benzamide] to `Cc1ccc(N2CCN(S(C)(=O)=O)CC2)cc1C(=O)N[C@H](C)c1cccc2ccccc12` [Example 110, 2-Methyl-5-(4-methylsulfonylpiperazin-1-yl)-N-[(1R)-1-(1-naphthyl)ethyl]benzamide], the IC50 rises from less than 100 µM to greater than 100 µM. The first is the more potent here.

`COc1ccc([C@@H](C)NC(=O)c2cc(N3CC4(CNC4)C3)ccc2C)cc1OC` [Example 37, 5-(2,6-Diazaspiro[3.3]heptan-2-yl)-N-[(1R)-1-(3,4-dimethoxyphenyl)ethyl]-2-methyl-benzamide] and `Cc1ccc(N2CCN(C)CC2)cc1C(=O)N[C@H](C)c1cccc(S(C)(=O)=O)c1` [Example 38, 2-Methyl-5-(4-methylpiperazin-1-yl)-N-[(1R)-1-(3-methylsulfonylphenyl)ethyl] benzamide] cannot be ordered by IC50: less than 20 µM for the first, less than 20 µM for the second.

`Cc1ccc(N2CCN(C)CC2)cc1C(=O)N[C@H](C)c1cccc(-c2ccncc2)c1` [Example 51, 2-Methyl-5-(4-methylpiperazin-1-yl)-N-[(1R)-1-[3-(4-pyridyl)phenyl]ethyl]benzamide] and `Cc1ccc(N2CCN(C)CC2)cc1C(=O)N[C@H](C)c1cccc(-c2cccc(C(=O)O)c2)c1` [Example 83, 3-[3-[(1R)-1-[[2-Methyl-5-(4-methylpiperazin-1-yl)benzoyl]amino]ethyl]phenyl]benzoic Acid] cannot be ordered by IC50: less than 2 µM for the first, less than 5 µM for the second.

`Cc1ccc(N2CCN(C)CC2)cc1C(=O)N[C@H](C)c1cccc(CCC(=O)O)c1` [Example 82, 3-[3-[(1R)-1-[[2-Methyl-5-(4-methylpiperazin-1-yl)benzoyl]amino]ethyl]phenyl] propanoic Acid] and `Cc1ccc(N2CCN(C)CC2)cc1C(=O)N[C@H](C)c1cccc(CCC(=O)N(C)C)c1` [Example 84, N-[(1R)-1-[3-[3-(Dimethylamino)-3-oxo-propyl]phenyl]ethyl]-2-methyl-5-(4-methylpiperazin-1-yl)benzamide] cannot be ordered by IC50: less than 100 µM for the first, less than 20 µM for the second.

`Cc1ccc(N2CC[C@H](O)C2)cc1C(=O)N[C@H](C)c1cccc2ccccc12` [Example 119, 5-[(3S)-3-Hydroxypyrrolidin-1-yl]-2-methyl-N-[(1R)-1-(1-naphthyl)ethyl]benzamide] and `C[C@@H](NC(=O)c1cc(N2CCNC(C(F)(F)F)C2)ccc1Cl)c1cccc2ccccc12` (stereo partly drawn) [Example 132, 2-Chloro-N-[(1R)-1-(1-naphthyl)ethyl]-5-[3-(trifluoromethyl)piperazin-1-yl]benzamide] cannot be ordered by IC50: less than 100 µM for the first, less than 100 µM for the second.

Compared with `Cc1ccc(N2CCN(C)CC2)cc1C(=O)N[C@H](C)c1cnn(C)c1` [Example 127, 2-Methyl-5-(4-methylpiperazin-1-yl)-N-[(1R)-1-(1-methylpyrazol-4-yl)ethyl]benzamide], `C[C@@H](NC(=O)c1cc(N2CCN(CC(F)(F)F)CC2)ccc1Cl)c1cccc2ccccc12` [Example 131, 2-Chloro-N-[(1R)-1-(1-naphthyl)ethyl]-5-[4-(2,2,2-trifluoroethyl)piperazin-1-yl]benzamide] is higher in IC50: less than 100 µM for the first, greater than 100 µM for the second.

`C[C@@H](NC(=O)c1cccc(-c2ccnc(N3CCN(C)CC3)n2)c1)c1cccc2ccccc12` [Example 137, 3-[2-(4-Methylpiperazin-1-yl)pyrimidin-4-yl]-N-[(1R)-1-(1-naphthyl)ethyl]benzamide] and `C[C@@H](NC(=O)c1cccc(-c2ccnc(N3CCOCC3)n2)c1)c1cccc2ccccc12` [Example 138, 3-(2-Morpholinopyrimidin-4-yl)-N-[(1R)-1-(1-naphthyl)ethyl]benzamide] cannot be ordered by IC50: greater than 100 µM for the first, greater than 100 µM for the second.

`Cc1ccc(-c2ccncc2)cc1C(=O)N[C@H](C)c1cccc2ccccc12` [Example 139, 2-Methyl-N-[(1R)-1-(1-naphthyl)ethyl]-5-(4-pyridyl)benzamide] and `Cc1ccc(-c2cccnc2)cc1C(=O)N[C@H](C)c1cccc2ccccc12` [Example 143, 2-Methyl-N-[(1R)-1-(1-naphthyl)ethyl]-5-(3-pyridyl)benzamide] cannot be ordered by IC50: less than 20 µM for the first, less than 20 µM for the second.

`Cc1ccc(-c2cccc(CCN3CCOCC3)c2)cc1C(=O)N[C@H](C)c1cccc2ccccc12` [Example 141, 2-Methyl-5-[3-(2-morpholinoethyl)phenyl]-N-[(1R)-1-(1-naphthyl)ethyl]benzamide] and `Cc1ccc(-c2cccc(CCO)c2)cc1C(=O)N[C@H](C)c1cccc2ccccc12` [Example 142, 5-[3-(2-Hydroxyethyl)phenyl]-2-methyl-N-[(1R)-1-(1-naphthyl)ethyl]benzamide] cannot be ordered by IC50: greater than 100 µM for the first, greater than 100 µM for the second.

`C[C@@H](NC(=O)c1cc(-c2ccc(CN3CCN(C)CC3)cc2)ccc1Cl)c1cccc2ccccc12` [Example 145] and `Cc1ccc(-c2ccnc(N3CCN(CCC(=O)O)CC3)c2)cc1C(=O)N[C@H](C)c1cccc2ccccc12` [Example 169, 3-[4-[4-[4-Methyl-3-[[(1R)-1-(1-naphthyl)ethyl]carbamoyl]phenyl]-2-pyridyl]piperazin-1-yl]propanoic acid] cannot be ordered by IC50: less than 100 µM for the first, less than 20 µM for the second.

Compared with `C[C@@H](NC(=O)c1cc(-c2ccncc2)cn1C)c1cccc2ccccc12` [Example 148, 1-Methyl-N-[(1R)-1-(1-naphthyl)ethyl]-4-(4-pyridyl)pyrrole-2-carboxamide], `C[C@@H](NC(=O)c1cc(C2=CCNC2)cn1C)c1cccc2ccccc12` [Example 149, 4-(2,5-Dihydro-1H-pyrrol-3-yl)-1-methyl-N-[(1R)-1-(1-naphthyl)ethyl]pyrrole-2-carboxamide Hydrochloride Salt] is lower in IC50: greater than 100 µM for the first, less than 100 µM for the second.

Compared with `C[C@@H](NC(=O)c1cc(C2CCNC2)cn1C)c1cccc2ccccc12` (stereo partly drawn) [Example 150, 1-Methyl-N-[(1R)-1-(1-naphthyl)ethyl]-4-pyrrolidin-3-yl-pyrrole-2-carboxamide], `C[C@@H](NC(=O)c1cc(-c2ccc(C3CCNCC3)cc2)cn1C)c1cccc2ccccc12` [Example 151, 1-Methyl-N-[(1R)-1-(1-naphthyl)ethyl]-4-[4-(4-piperidyl)phenyl]pyrrole-2-carboxamide] is higher in IC50: less than 100 µM for the first, greater than 100 µM for the second. The first is the more potent here.

`Cc1ccc(-c2cccc(S(=O)(=O)N3CCNCC3)c2)cc1C(=O)N[C@H](C)c1cccc2ccccc12` [Example 152, 2-Methyl-N-[(1R)-1-(1-naphthyl)ethyl]-5-(3-piperazin-1-ylsulfonylphenyl)benzamide] and `Cc1ccc(-c2cn[nH]c2)cc1C(=O)N[C@H](C)c1cccc2ccccc12` [Example 153, 2-Methyl-N-[(1R)-1-(1-naphthyl)ethyl]-5-(1H-pyrazol-4-yl)benzamide] cannot be ordered by IC50: less than 100 µM for the first, less than 20 µM for the second.

`C[C@@H](NC(=O)c1cccc(C2CCN(CCC(=O)O)CC2)c1)c1cccc2ccccc12` [Example 164, 3-[4-[3-[[(1R)-1-(1-Naphthyl)ethyl]carbamoyl]phenyl]-1-piperidyl]propanoic acid] and `C[C@@H](NC(=O)c1cccc(C2CCN(CCS(C)(=O)=O)CC2)c1)c1cccc2ccccc12` [Example 176, 3-[1-(2-Methylsulfonylethyl)-4-piperidyl]-N-[(1R)-1-(1-naphthyl)ethyl]benzamide] cannot be ordered by IC50: less than 100 µM for the first, less than 100 µM for the second.

Compared with `C[C@@H](NC(=O)c1cccc(C(=O)N2CCN(C)CC2)c1)c1cccc2ccccc12` [Example 173, 3-(4-Methylpiperazine-1-carbonyl)-N-[(1R)-1-(1-naphthyl)ethyl]benzamide], `C[C@@H](NC(=O)c1cccc(C(=O)NCCN(C)C)c1)c1cccc2ccccc12` [Example 174, N1-[2-(Dimethylamino)ethyl]-N3-[(1R)-1-(1-naphthyl)ethyl]benzene-1,3-dicarboxamide] is lower in IC50: greater than 100 µM for the first, less than 100 µM for the second. The second is the more potent here.

With `C[C@@H](NC(=O)c1cccc(C2CCN(CCS(=O)(=O)c3ccccc3)CC2)c1)c1cccc2ccccc12` [Example 175, 3-[1-[2-(Benzenesulfonyl)ethyl]-4-piperidyl]-N-[(1R)-1-(1-naphthyl)ethyl]benzamide] the IC50 was greater than 100 µM.
